pIC50: −log10 of the molar value.
Experiments:
[1] = system: L6; assay: Cytotoxicity against rat L6 cells after 72 hrs by alamar blue assay; type: cell-based; conditions: L6, 72 h
[2] = system: Trypanosoma brucei rhodesiense; assay: Antiprotozoal activity against blood stream form of Trypanosoma brucei rhodesiense STIB900 after 72 hrs by alamar blue assay; type: functional, organism-based; conditions: STIB900, 72 h
[3] = system: Plasmodium falciparum; assay: Antiprotozoal activity against erythrocytic form of chloroquine/pyrimethamine-resistant Plasmodium falciparum K1 after 48 hrs by [3H]-hypoxanthine incorporation assay; type: functional, organism-based
[4] = system: Leishmania donovani; assay: Antiprotozoal activity against amastigote form of Leishmania donovani MHOM/ET/67/L82 after 72 hrs by alamar blue assay; type: functional, organism-based; conditions: MHOM/ET/67/L82, 72 h
[5] = system: Trypanosoma cruzi; assay: Antiprotozoal activity against trypomastigote form of Trypanosoma cruzi Tulahuen C2C4 infected in rat L6 cells after 96 hrs by CPRG/Nonidet-based […]; type: functional, organism-based; conditions: Tulahuen C2C4, L6, 96 h

| SMILES | pIC50 [1] | pIC50 [2] | pIC50 [3] | pIC50 [4] | pIC50 [5] |
| --- | --- | --- | --- | --- | --- |
| CC1=C(O)/C(=C/[C@H](C)CCC/C(C)=C/CCc2coc(CC3=CCN(CC(=O)O)C3=O)c2)OC1=O | < 3.70 | 3.89 | 4.02 | 3.92 |  |
| CC1=C(O)/C(=C/[C@H](C)CCC/C(C)=C/CCC2=CC(Cc3ccoc3)N(CC(=O)O)C2=O)OC1=O (stereo partly specified) | < 3.70 | 3.89 | < 4.00 | 4.02 |  |
| O=C(Cn1ccnc1[N+](=O)[O-])NCc1ccccc1 [BENZNIDAZOLE] |  |  |  |  | 5.51 |
| CC1=C(O)/C(=C/[C@H](C)CCC/C(C)=C/CCc2coc(Cc3ccoc3)c2)OC1=O [IRCININ 1] | 3.82 | 4.01 | 4.24 | 4.51 | 3.92 |
| CC1=C(O)/C(=C/[C@H](C)CC/C=C(/C)CCCc2coc(Cc3ccoc3)c2)OC1=O [IRCININ 2] | 3.85 | 4.19 | 4.25 | 4.55 | 3.96 |
| Nc1nc(N)nc(Nc2ccc([As]3SCC(CO)S3)cc2)n1 (stereo unspecified) [MELARSOPROL] |  | 7.82 |  |  |  |
| COc1cc([C@@H]2c3cc4c(cc3[C@H](O)[C@H]3COC(=O)[C@H]23)OCO4)cc(OC)c1OC [PODOFILOX] | 8.00 |  |  |  |  |

From ChEMBL document CHEMBL4130402, “Antiprotozoal Linear Furanosesterterpenoids from the Marine Sponge Ircinia oros” (J Nat Prod, 2017)
